Two molecules from ChEMBL document CHEMBL3046586, “Lethal and sublethal effects of buprofezin and imidacloprid on Bemisia tabaci (Hemiptera: Aleyrodidae)” (2011) can be followed below.

Converted amounts (≈) assume the structure as drawn. The source made the active and inactive calls. The rule behind the calls is not given here.

For assay [1], the system named is Bemisia tabaci. Description: Insecticidal activity against adult female Bemisia tabaci (sweet potato whitefly) in compound treated cucumber leaves assessed as laid eggs at LC25 concentration at 25 +/- 1 degC, 70 +/- 5% RH after 48 hr. Format: functional, organism-based.
Assay [2] relates to Bemisia tabaci. Description: Insecticidal activity against Bemisia tabaci (sweet potato whitefly) at pupae stage in compound treated cucumber leaves assessed as mortality measured as dry larvae and detached from leaf at 25 +/- 1 degC, 70 +/- 5% RH after 7 days. Type of assay: functional. The note with it: 168 h.
Assay [3] relates to Bemisia tabaci. Description: Insecticidal activity against Bemisia tabaci (sweet potato whitefly) at third instar larvae stage in compound treated cucumber leaves assessed as mortality measured as dry larvae and detached from leaf at 25 +/- 1 degC, 70 +/- 5% RH after 7 days. Type of assay: functional. The conditions noted are these: 168 h.
For assay [4], the system named is Bemisia tabaci. As to the kind of experiment: Insecticidal activity against Bemisia tabaci (sweet potato whitefly) at egg stage in compound treated cucumber leaves assessed as mortality measured as failure to hatch at 25 +/- 1 degC, 70 +/- 5% RH after 10 days. The conditions noted are these: 240 h. Format: functional.
Assay [5] relates to Bemisia tabaci. As to the kind of experiment: Insecticidal activity against adult female Bemisia tabaci (sweet potato whitefly) in compound treated cucumber leaves assessed as egg hatch at LC25 concentration at 25 +/- 1 degC, 70 +/- 5% RH after 48 hr (reference value: […]). Format: functional.
In assay [6] the test system is Bemisia tabaci. As to the kind of experiment: Insecticidal activity against Bemisia tabaci (sweet potato whitefly) at second instar larvae stage in compound treated cucumber leaves assessed as mortality measured as dry larvae and detached from leaf at 25 +/- 1 degC, 70 +/- 5% RH after 7 days. The note with it: 168 h. Type of assay: functional.
In assay [7] the test system is Bemisia tabaci. As to the kind of experiment: Insecticidal activity against adult female Bemisia tabaci (sweet potato whitefly) in compound treated cucumber leaves assessed as offspring sex ratio at LC25 concentration at 25 +/- 1 degC, 70 +/- 5% RH after 48 hr (Rvb Female/Female + male)= 0.60 no unit). Format: functional.
Assay [8] has as its system Bemisia tabaci. As to the kind of experiment: Insecticidal activity against male Bemisia tabaci (sweet potato whitefly) in compound treated cucumber leaves assessed as mortality after 48 hr. Format: functional.
Assay [9] relates to Bemisia tabaci. As to the kind of experiment: Insecticidal activity against adult female Bemisia tabaci (sweet potato whitefly) in compound treated cucumber leaves assessed as mortality after 48 hr. Format: functional.
Assay [10] relates to Bemisia tabaci. As to the kind of experiment: Insecticidal activity against adult female Bemisia tabaci (sweet potato whitefly) in compound treated cucumber leaves assessed as longevity at LC25 concentration at 25 +/- 1 degC, 70 +/- 5% RH after 48 hr (reference value: 8.31 days). Type of assay: functional.
Assay [11] concerns Bemisia tabaci. Description: Insecticidal activity against Bemisia tabaci (sweet potato whitefly) at first instar larvae stage in compound treated cucumber leaves assessed as mortality measured as dry larvae and detached from leaf at 25 +/- 1 degC, 70 +/- 5% RH after 7 days. Format: functional. The conditions noted are these: 168 h.
Assay [12] concerns Bemisia tabaci. Description: Insecticidal activity against adult female Bemisia tabaci (sweet potato whitefly) in compound treated cucumber leaves assessed as mortality at 8000 ppm at 25 +/- 1 degC, 70 +/- 5% RH after 48 hr (reference value: 9.3%). Format: functional.
The subject of assay [13] is Bemisia tabaci. As to the kind of experiment: Insecticidal activity against Bemisia tabaci (sweet potato whitefly) at egg stage in compound treated cucumber leaves assessed as egg hatch at 10000 ppm at 25 +/- 1 degC, 70 +/- 5% RH after 10 days (reference value: 91%). Format: functional.
In assay [14] the test system is Bemisia tabaci. Description: Insecticidal activity against adult female Bemisia tabaci (sweet potato whitefly) in compound treated cucumber leaves assessed as mortality at 2000 ppm at 25 +/- 1 degC, 70 +/- 5% RH after 48 hr (reference value: 9.3%). Format: functional.
Assay [15] relates to Bemisia tabaci. As to the kind of experiment: Insecticidal activity against male Bemisia tabaci (sweet potato whitefly) in compound treated cucumber leaves assessed as mortality at 10000 ppm at 25 +/- 1 degC, 70 +/- 5% RH after 48 hr (reference value: 6.3%). Format: functional.
In assay [16] the test system is Bemisia tabaci. As to the kind of experiment: Insecticidal activity against male Bemisia tabaci (sweet potato whitefly) in compound treated cucumber leaves assessed as mortality at 8000 ppm at 25 +/- 1 degC, 70 +/- 5% RH after 48 hr (reference value: 6.3%). Format: functional.
Assay [17] has as its system Bemisia tabaci. Description: Insecticidal activity against male Bemisia tabaci (sweet potato whitefly) in compound treated cucumber leaves assessed as mortality at 2000 ppm at 25 +/- 1 degC, 70 +/- 5% RH after 48 hr (reference value: 6.3%). Format: functional.
The test system of assay [18] is Bemisia tabaci. Description: Insecticidal activity against Bemisia tabaci (sweet potato whitefly) at egg stage in compound treated cucumber leaves assessed as egg hatch at 2000 ppm at 25 +/- 1 degC, 70 +/- 5% RH after 10 days (reference value: 91%). Type of assay: functional.
The test system of assay [19] is Bemisia tabaci. As to the kind of experiment: Insecticidal activity against Bemisia tabaci (sweet potato whitefly) at egg stage in compound treated cucumber leaves assessed as egg hatch at 8000 ppm at 25 +/- 1 degC, 70 +/- 5% RH after 10 days (reference value: 91%). Type of assay: functional.
Assay [20] has as its system Bemisia tabaci. As to the kind of experiment: Insecticidal activity against adult female Bemisia tabaci (sweet potato whitefly) in compound treated cucumber leaves assessed as mortality at 10000 ppm at 25 +/- 1 degC, 70 +/- 5% RH after 48 hr (reference value: 9.3%). Format: functional.

On to `O=[N+]([O-])/N=C1\NCCN1Cc1ccc(Cl)nc1` [IMIDACLOPRID], for which, in the assay with Bemisia tabaci [1], the result was inactive. In addition, the LC50 – broadly, the concentration that kills 50% of the test population – stood at 2850 µg/mL (≈ 11200 µM) in the assay with Bemisia tabaci [2]; 335 µg/mL (≈ 1310 µM) in the assay with Bemisia tabaci [3]; 151 µg/mL (≈ 591 µM) with Bemisia tabaci [4]; 85.4 µg/mL (≈ 334 µM) in the assay with Bemisia tabaci [6]; 11.8 µg/mL (≈ 46.2 µM) with Bemisia tabaci [8]; 71.6 µg/mL (≈ 280 µM) in the assay on Bemisia tabaci [9] (Bemisia tabaci, 48 h). For the same molecule, the LC50 in the assay on Bemisia tabaci [11] turned out to be 19.3 µg/mL (≈ 75.5 µM). The Activity with Bemisia tabaci [5] amounted to 87.42%. In the assay with Bemisia tabaci [7], the Ratio was 0.56. The LC25 in the assay with Bemisia tabaci [9] amounted to 4.64 ppm. Also, the Time in the assay with Bemisia tabaci [10] was 11.7 days.

On to `CC(C)N1C(=O)N(c2ccccc2)CS/C1=N\C(C)(C)C` [BUPROFEZIN], for which the mortality (as a rule, the share of the test organisms that died) at 8000 ppm came out at 8% with Bemisia tabaci [12] and 10% with Bemisia tabaci [16]. Moreover, the result in the assay on Bemisia tabaci [1] was Active. The Activity stood at 72% in the assay on Bemisia tabaci [13], 66% with Bemisia tabaci [5], 88% in the assay with Bemisia tabaci [18] and 68% in the assay with Bemisia tabaci [19]. Also, the mortality at 2000 ppm in the assay with Bemisia tabaci [14] is 8%; with Bemisia tabaci [17], 11.3%. Moreover, the LC50 was 979 µg/mL (≈ 3210 µM) in the assay with Bemisia tabaci [2], 44.7 µg/mL (≈ 146 µM) with Bemisia tabaci [3], 10.9 µg/mL (≈ 35.8 µM) in the assay on Bemisia tabaci [6] and 0.99 µg/mL (≈ 3.24 µM) in the assay on Bemisia tabaci [11]. The mortality at 10000 ppm in the assay on Bemisia tabaci [15] worked out at 19%; in the assay on Bemisia tabaci [20], 9.3%. For the same molecule, the Ratio in the assay with Bemisia tabaci [7] is given as 0.5. In the assay on Bemisia tabaci [10], the Time was found to be 4.85 days.
